# In patent publication US12012408B2, “Purine compounds and method for the treatment of cancer” (THE ROYAL INSTITUTION FOR THE ADVANCEMENT OF …, priority 2018, dated 2024):
# Assays:
# Aurora kinase A = target: T1, Aurora kinase A (Homo sapiens, UniProt O14965); assay: SelectScreen kinase profiling (Invitrogen), high-throughput screening against a panel of kinases; format: biochemical; details: 100 nM screening concentration
# T1 sequence (O14965 1-403): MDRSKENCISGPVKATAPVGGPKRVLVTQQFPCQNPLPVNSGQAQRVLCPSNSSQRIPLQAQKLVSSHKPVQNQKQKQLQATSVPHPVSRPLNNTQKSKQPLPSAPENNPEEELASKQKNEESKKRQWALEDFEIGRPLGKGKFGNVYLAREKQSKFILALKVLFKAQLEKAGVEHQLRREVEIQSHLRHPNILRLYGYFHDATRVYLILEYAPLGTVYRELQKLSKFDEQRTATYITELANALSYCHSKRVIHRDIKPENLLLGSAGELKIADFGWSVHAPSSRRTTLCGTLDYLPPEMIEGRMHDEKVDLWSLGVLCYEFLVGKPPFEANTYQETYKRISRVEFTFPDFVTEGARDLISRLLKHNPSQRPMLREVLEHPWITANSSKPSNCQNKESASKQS
# Procedure: (§1) FIG. S3A represents the SelectScreen kinase profiling (Invitrogen) results obtained against a panel of kinases for SLLN-15 at 100 nM.
# (§2) To further evaluate cellular Aurora kinase inhibitory activity of SLLN-15, western blot analysis was carried out in both MDA-MB-231 and BT-20 cell lines. […] To gain further insight into the mechanism underlying the regulation of Aurora A and B by SLLN-15, we next examined whether Aurora A and B were degraded via the proteasome pathway.
# Janus kinase 2 (JAK2) = Janus kinase 2 (JAK2) (Homo sapiens, UniProt O60674); assay: as above; format: biochemical; details: 100 nM screening concentration
# Sequence of Janus kinase 2 (JAK2) (O60674 whole entry): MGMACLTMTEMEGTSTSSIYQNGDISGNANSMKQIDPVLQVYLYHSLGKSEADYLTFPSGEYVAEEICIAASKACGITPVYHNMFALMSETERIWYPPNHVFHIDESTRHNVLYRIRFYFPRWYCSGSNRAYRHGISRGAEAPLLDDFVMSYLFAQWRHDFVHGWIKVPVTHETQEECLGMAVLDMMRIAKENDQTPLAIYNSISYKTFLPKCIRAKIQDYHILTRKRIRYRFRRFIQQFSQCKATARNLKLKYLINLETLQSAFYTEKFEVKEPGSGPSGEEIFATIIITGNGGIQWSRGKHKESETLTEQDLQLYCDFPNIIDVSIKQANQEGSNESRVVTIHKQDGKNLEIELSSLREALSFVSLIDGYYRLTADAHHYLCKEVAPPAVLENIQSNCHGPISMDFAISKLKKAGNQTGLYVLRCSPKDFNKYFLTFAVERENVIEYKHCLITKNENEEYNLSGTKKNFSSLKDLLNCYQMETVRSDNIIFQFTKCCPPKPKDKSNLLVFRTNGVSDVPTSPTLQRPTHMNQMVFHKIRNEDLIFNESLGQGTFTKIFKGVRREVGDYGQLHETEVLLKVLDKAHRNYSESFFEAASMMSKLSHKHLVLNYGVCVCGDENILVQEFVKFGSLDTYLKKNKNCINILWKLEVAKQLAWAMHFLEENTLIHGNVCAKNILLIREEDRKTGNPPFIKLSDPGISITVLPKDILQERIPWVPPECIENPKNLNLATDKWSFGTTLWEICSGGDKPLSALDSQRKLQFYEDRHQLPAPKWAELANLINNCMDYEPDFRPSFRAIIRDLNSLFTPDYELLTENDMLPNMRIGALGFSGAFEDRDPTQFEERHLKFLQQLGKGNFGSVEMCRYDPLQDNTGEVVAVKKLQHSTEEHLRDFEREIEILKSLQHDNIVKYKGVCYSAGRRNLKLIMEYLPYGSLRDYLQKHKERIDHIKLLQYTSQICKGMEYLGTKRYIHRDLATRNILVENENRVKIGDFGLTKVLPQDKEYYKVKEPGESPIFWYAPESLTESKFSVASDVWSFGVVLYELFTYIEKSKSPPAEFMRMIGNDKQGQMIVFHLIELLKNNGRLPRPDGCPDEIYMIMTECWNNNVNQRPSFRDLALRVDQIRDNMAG
# Procedure: as §1, §2
# [1] = tested on: Aurora A, Aurora B, Aurora C in MDA-MB-231 and BT-20 cells; assay: Western blot of cellular Aurora kinase phosphorylation and expression; format: cell-based
# Procedure: (§3) Sub-confluent cells were washed with PBS, lysed in RIPA buffer (50 mM Tris-HCl at pH7.5, 150 mM sodium chloride, 1% tritonX-100, 0.1% SDS, 2 mM EDTA and 25 mM sodium fluoride) supplemented with 1 mM PMSF and protease inhibitor cocktail (Roche) for 10 min on ice and centrifuged (13,000 rpm at 4° C. for 20 min) to separate cell lysate. Cell lysate (50 μg protein, as measured by the Bradford protein assay) was then added with SDS sample buffer (Tris at pH 6.8, 20% glycerol, 5% SDS, bromophenol blue and β-mercaptoethanol) and boiled for 5 min. Samples were then resolved through 13% SDS-PAGE gels, transferred to nitrocellulose membrane, blotted with specific first antibodies at different dilution in cold room overnight, and then amplified with horseradish peroxidase-conjugated secondary antibodies for 1 hour in room temperature and enhanced by chemiluminescence detection system.
# as §2
# [2] = tested on: breast cancer cell lines MDA-MB-231, BT20, MDA-MD468, 4T1, MCF-7, SKBR3; assay: Colony formation assay (long-term cell viability); format: cell-based; details: MDA-MB-231, BT20, MDA-MD468, 4T1, MCF-7 (ER+, PR+), SKBR3 (Her2+); FIG. 1B
# Procedure: The long-term effects of SLLN-15 on tumor cell growth were assessed using the colony formation assay. Cells were trypsinized and plated in triplicate wells in 12-well plate (500 cells/well). After six hours of incubation, cells were treated with the indicated concentrations of SLLN-15 or DMSO. 7 days after the cells plated and treated, they were washed and stained with a mixture of 0.05% w/v crystal violet and 6% v/v glutaraldehyde, and the colonies >100 μm in diameter were counted using a colony counter (Oxford Optronix Gelcount, Inc., Milton Park, Abingdon, UK).
# [3] = tested on: MDA-MB-231 and BT-20 cells; assay: Light microscopy of cell morphology; format: cell-based; details: compared to control cells; more detached and shrunken cells
# Source text: FIG. S1 represents the cell morphological changes of MDA-MB-231 and BT-20 upon SLLN-15 treatment as visualized by light microscopy.
# Within our quest to develop effective novel anti-cancer drug for TNBCs, we designed and synthesized a library of compounds derived from seleno-purine scaffolds. A high-throughput screening of major classes of kinases and enzymes involved in carcinogenesis identified a 4-selenomorpholinophenyl- and tetrahydroselenophene-substituted diamino-purines, namely SLLN-15 (FIG. 1A), as a potent small molecule capable of inhibiting TNBC cells. […] Subsequent cell-based assays confirmed this small molecule to inhibit the proliferation of two TNBC cell lines, BT-20 and MDA-MB-231.
# [4] = tested on: MDA-MB-231 and BT-20 cells; assay: BrdU labeling cell proliferation assay; format: cell-based; details: FIG. 6D
# Procedure: The proliferation effects of SLLN-15 were assessed using the bromodeoxyuridine (BrdU) Cell proliferation Assay Kit (Biovision). Cells were seeded at a density of 5000 cells/well in a 96-well plate and treated with SLLN-15 or rapamycin (Cayman chemical) as indicated concentration or DMSO for 24 hours. The plates were read on FLUOstar OPTIMA microplate reader (BMG Labtech, Ortenberg, Germany) at 450 nm. Assays were performed in triplicate on three independent experiments.
# [5] = tested on: cleaved-PARP, cleaved-caspase 3, Bcl-2 in MDA-MB-231 and BT-20 cells; assay: Western blot of indicators of apoptosis; format: cell-based
# Procedure: as §3
# Considering apoptosis is the major form of cell death induced by chemotherapeutic agent, we seek to identify whether the anticancer effect of SLLN-15 was mediated via apoptosis in breast cancer cells.
# [6] = tested on: breast cancer stem-like cells (BCSCs), ALDHhigh and CD24low/CD44high; assay: Anti-stemness activity in breast cancer stem-like cells; format: cell-based
# Source text: Breast cancer stem-like cells (BCSCs), heterogeneously subsisting as CD24low/CD44high and ALDHhigh subpopulations, are enriched in aggressive breast cancer subtypes and believed to be responsible for driving metastatic colonization. Despite evidence of a clinical association between BCSC and poor prognosis, effective therapeutic means to target this cell population is lacking. We identified SLLN-15 as a compound with selective anti-sternness activity across a panel of cell lines expressing ALDHhigh and CD24low/CD44high markers, including MDA-MB-231, SUM-149PT, BT-20, SKBR3, 4T1 and several anaplastic thyroid cell lines. […] In summary, our data foster that targeting regulatory networks driving sternness represent important therapeutic targets for treating metastatic breast disease.
smiles,measurement,setting,value
c1nc2nc(Nc3ccc(N4CC[Se]CC4)cc3)nc(N[C@H]3CC[Se]C3)c2[nH]1 [SLLN-15],inhibition of Aurora kinase A,Aurora kinase A,91%
same,inhibition of Janus kinase 2 (JAK2),Janus kinase 2 (JAK2),85%
same,"phosphorylation of Aurora A at Thr288, Aurora B at Thr232, Aurora C at Thr198","[1]; 1 μM, FIG. 7A",strongly inhibited phosphorylation of both Aurora A at Thr288 and B at Thr232 but not Aurora C at Thr198
same,expression of Aurora A over time,"[1]; BT-20 cells, 6 hours post-treatment, FIG. 7C",downregulated the expression of Aurora A at earlier time points
same,Aurora A and Aurora B expression,"[1]; dose-dependent, FIG. 7A",decreased both Aurora A and Aurora B expression
same,colony formation abilities,[2],equally inhibit the colony formation abilities
same,cell morphology,[3],induced obvious morphological changes
same,anti-proliferation potency compared to rapamycin,[4],more potent anti-proliferation agents
same,BrdU-positive cells,[4]; dose-dependent,lower percentage of BrdU-positive cells
same,"indicators of apoptosis: upregulation of cleaved-PARP and cleaved-caspase 3, downregulation of Bcl-2",[5]; FIG. 6B,not SLLN-15 treated cells
same,apoptosis,"[5]; up to 48 hours post-exposure, breast cancer cells",no significant apoptosis was observed
same,centrosomes clustering,[6]; FIGS. 8A and 8B,interferes with centrosomes clustering
same,cell locomotion,"[6]; MDA-MB-231, sorted BCSC subpopulation, concurrent inhibition of focal adhesion kinase signaling",induced loss of cell locomotion
same,"BCSC-marker expression, tumorspheres formation, STAT3 activation, mitotic spindle assembly",[6]; SLLN-15-treated cells,"reduced BCSC-marker expression, tumorspheres formation, STAT3 activation and defective mitotic spindle assembly"
